These are literature values, as cited in USRE39480E1, “Chromium/biotin treatment of type II diabetes” (Nutrition 21, Inc., priority 1997, dated 2007).

For data set [1] the following is noted: oral biotin intakes of up to 200 mg daily.
The subject of data set [2] is poorly-controlled type II diabetics. The following applies: 3 mg biotin three times per day.
Data set [3] concerns diabetic KK mice. The following applies: high-dose oral or parenteral biotin.
Data set [4] deals with pre-diabetic Otsuka Long-Evans Tokushima Fatty rats. Conditions: high-dose oral or parenteral biotin.
The subject of data set [5] is Type I diabetics. The following applies: daily oral dose of 16 mg; insulin injections temporarily discontinued.
Data set [6] deals with rats made diabetic by injection with streptozotocin. Conditions: high-dose oral or parenteral biotin.
Data set [7] concerns Type II diabetes. The following applies: doses which provide between 50 and 500 μg of chromium.
In data set [8] the test system is individuals with Type II diabetes. The following applies: 1,000 μg chromium per day as chromic tripicolinate.

Consider `O=C(O)CCCC[C@@H]1SC[C@@H]2NC(=O)N[C@@H]21` [biotin], for which the “side effects or toxicities” value in data set [1] was “no side effects or toxicities were noted”. In data set [2], the fasting insulin levels entry is “did not decline”, the glucose levels result was “sharp decline” and the “pancreatic beta cell function” value is listed as “improved pancreatic beta cell function”. Further, the oral glucose tolerance result in data set [3] is on record as “improve oral glucose tolerance”. Further, the oral glucose tolerance entry in data set [4] is listed as “improve oral glucose tolerance”. Moreover, the “fasting plasma glucose levels” value in data set [5] is given as “lowered fasting plasma glucose levels”. In addition, the oral glucose tolerance result in data set [6] was “improve oral glucose tolerance”.

As for chromic tripicolinate, the “change in glycosylated hemoglobin” value in data set [7] is “small decrease”. Also, in data set [7] (still within the diabetic range), the “glycosylated hemoglobin value obtained after chromic tripicolinate treatment” value is reported as 10.4%. In addition, the “decrease in glycosylated hemoglobin” value in data set [8] is recorded as 30%.
